Entries after “also recorded” stand apart in the source; their conditions may differ. Residues, ends and D or L forms follow the SMILES beside them.
How the values were obtained:
[1] = molecular target: T1, K-ΔKv1.3 (N-terminally truncated human Kv1.3 tagged with mKate2) (Homo sapiens, UniProt P22001); assay: Fluorescent competitive binding assay (FCBA), displacement of A-HgTx from K-ΔKv1.3; parameters: expressed in transfected cells; host or cells: HEK293 (transient transfection with pmKate2-KCNA3-del); conditions: living HEK293 cells; 2 nM A-HgTx; result in words
T1 sequence (P22001 53-575 limits assumed, stated change not applied): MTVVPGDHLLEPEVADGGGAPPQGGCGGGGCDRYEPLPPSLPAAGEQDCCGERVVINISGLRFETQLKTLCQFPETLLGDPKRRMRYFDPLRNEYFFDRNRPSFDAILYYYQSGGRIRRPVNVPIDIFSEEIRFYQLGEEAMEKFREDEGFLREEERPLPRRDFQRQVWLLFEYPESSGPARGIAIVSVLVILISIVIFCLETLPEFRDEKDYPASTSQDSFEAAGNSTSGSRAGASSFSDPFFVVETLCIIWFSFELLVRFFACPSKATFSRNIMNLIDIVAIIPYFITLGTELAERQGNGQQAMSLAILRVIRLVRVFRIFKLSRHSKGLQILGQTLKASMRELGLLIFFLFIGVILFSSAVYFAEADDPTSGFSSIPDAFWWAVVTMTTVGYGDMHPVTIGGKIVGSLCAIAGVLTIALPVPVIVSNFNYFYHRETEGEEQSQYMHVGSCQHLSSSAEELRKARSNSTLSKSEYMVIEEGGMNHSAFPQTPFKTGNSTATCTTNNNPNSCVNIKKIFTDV
Description: To quantitatively characterize formation of complexes between A-HgTx and K-ΔKv1.3 on cell membranes, the confocal images of A-HgTx bound at the membrane of the K-ΔKv1.3 presenting cells were subjected to the treatment procedure as follows. Regions of interest (ROIs) corresponding to the plasma membranes stained with K-ΔKv1.3 were selected. Using a set of these ROIs and a threshold procedure (to null a background signal from pixels without K-ΔKv1.3 signal), the binary (0;1) mask that describes membranous localization of K-ΔKv1.3 was created. The images of K-ΔKv1.3 and A-HgTx distribution were multiplied by the corresponding mask. Next, average intensities of fluorescence of K-ΔKv1.3 (Ici) and A-HgTx (Ili) were calculated for each ROI (i.e., for each i-cell), and a ratio Ri was calculated as follows. Ri = (Ili − Ilb)/(Ici − Icb) (1) where Ilb and Icb are intensities of background signals in the fluorescent images of A-HgTx and Kv1.3 channels, respectively. Calculating Ri (i.e., normalizing A-HgTx intensity to that of K-ΔKv1.3), a correction was introduced for variations in a level of K-ΔKv1.3 expression on the membrane of particular cells. Ri values of 15–20 cells were averaged to obtain the Rav value, and a standard deviation was calculated.
Concentration of A-HgTx was 2 nM. Concentration of pore blockers C varied as indicated in the graph.
When Kd of A-HgTx and IC50 for the studied compound are known, the apparent dissociation constant Kap of complexes between the compound and channel can be calculated using the Cheng-Prusoff equation [50]:Kap = IC50/(1 + L/Kd)(4) where L is the concentration of A-HgTx in the competitive binding experiment.
In A-HgTx binding experiments, cells were incubated with A-HgTx (0.15–4 nM) for 30 min (37 °C, 5% CO2) in the complete medium. In competitive binding experiments, cells were incubated with A-HgTx (2 nM) and selected pore blocker at variable concentrations (0.5–100 nM for recombinant peptides and 1–20 mM for TEA) for 30 min (37 °C, 5% CO2) in the complete medium.
Experiments with HEK293 cells were performed with a laser scanning confocal microscope Leica-SP2 (Leica Microsystems GmbH, Wetzlar, Germany). The water-immersion 63×/1.2 NA HCX PL APO objective was used.
Each experimental point in the curves describing interaction A-HgTx with mKate2-tagged Kv1.3 channels is an average over 15–25 treated images of cells. […]

[2] = molecular target: T1, K-ΔKv1.3 (N-terminally truncated human Kv1.3 tagged with mKate2); assay: Confocal imaging of A-HgTx binding and displacement, K-ΔKv1.3 in HEK293 cells; parameters: expressed in transfected cells; host or cells: HEK293 (transient transfection with pmKate2-KCNA3-del)
Procedure: (§1) Figure 4 Confocal imaging of A-HgTx interactions (green) with mKate2-tagged Kv1.3 channels (red) transiently expressed in HEK293 cells. (A–D) Binding (A,B) of A-HgTx (2 nM) to Kv1.3-K and its displacement (C,D) by HgTx1 (40 nM). (E–H) Binding (E,F) of A-HgTx (2 nM) to K-Kv1.3 and its displacement (G,H) by HgTx1 (40 nM). (I–L) Binding (I,J) of A-HgTx (2 nM) to K-ΔKv1.3 and its displacement (K,L) by HgTx1 (40 nM). (M,N) Control measurement of the binding of A-HgTx (2 nM) to intact (no transfection) HEK293 cells. (O,P) Control measurement of the background signal in the wavelength range corresponding to the A-HgTx emission (O) from HEK293 cells expressing K-ΔKv1.3 (without addition of A-HgTx). The scale bar is equal to 20 μm. (A,E,I,M,C,G,K,O) Distribution of A-HgTx. (B,F,J,N,D,H,L,P) Distribution of mKate2-tagged Kv1.3 channels.
(§2) KCNA3 gene encoding human Kv1.3 channel (hKv1.3, Accession number NP_002223.3) was a generous gift from Dr. A. Vassilevski. […]
(§3) Fluorescence of mKate2-fused hKv1.3 was excited at the 561 nm wavelength and recorded in the 650–700 nm range. Fluorescence of A-HgTx was excited at the 488 nm wavelength and recorded in the 495–535 nm range. Distributions of A-HgTx and mKate2 fluorescence in cells were imaged using sequential scanning to avoid interference of intrinsic cellular fluorescence excited at the 488 nm with the mKate2 fluorescence.

[3] = molecular target: T2, K-Kv1.3 (human Kv1.3 N-terminally tagged with mKate2) (Homo sapiens, UniProt P22001); assay: Confocal imaging of A-HgTx binding and displacement, K-Kv1.3 in HEK293 cells
T2 construct: membrane expression of the full-length human Kv1.3 was poor in X. oocytes, deletion of N-terminal M1-D52 residues boosted; expressed in transfected cells; host or cells: HEK293 (transient transfection with pmKate2-KCNA3)
T2 sequence (P22001 whole entry, the tested form may be a part): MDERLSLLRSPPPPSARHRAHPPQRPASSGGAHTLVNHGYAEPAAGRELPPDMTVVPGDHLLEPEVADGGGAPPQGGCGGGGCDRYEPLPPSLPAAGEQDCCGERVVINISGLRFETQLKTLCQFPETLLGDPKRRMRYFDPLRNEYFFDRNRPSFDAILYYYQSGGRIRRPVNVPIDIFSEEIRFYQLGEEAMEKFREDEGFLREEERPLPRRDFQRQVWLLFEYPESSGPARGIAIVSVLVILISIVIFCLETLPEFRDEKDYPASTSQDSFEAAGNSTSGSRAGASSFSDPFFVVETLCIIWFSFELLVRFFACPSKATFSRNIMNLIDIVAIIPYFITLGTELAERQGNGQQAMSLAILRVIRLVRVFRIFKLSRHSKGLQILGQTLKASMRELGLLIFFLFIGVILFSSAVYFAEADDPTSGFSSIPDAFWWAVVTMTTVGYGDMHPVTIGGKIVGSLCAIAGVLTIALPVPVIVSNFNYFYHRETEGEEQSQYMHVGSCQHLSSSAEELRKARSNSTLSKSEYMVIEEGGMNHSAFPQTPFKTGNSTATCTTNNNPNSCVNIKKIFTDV
Procedure: as §1, §2, §3

[4] = test system: Kv1.3-K (human Kv1.3 C-terminally tagged with mKate2); assay: Confocal imaging of A-HgTx binding and displacement, Kv1.3-K in HEK293 cells
Procedure: as §1, with “channels. […]” for “channels.”
as §3

[5] = molecular target: T1, K-ΔKv1.3 (N-terminally truncated human Kv1.3 tagged with mKate2); assay: Confocal imaging of A-HgTx binding and displacement, K-ΔKv1.3 in Neuro-2A cells; parameters: expressed in transfected cells; host or cells: HEK293 (transient transfection with pmKate2-KCNA3-del); conditions: 2 nM A-HgTx
Procedure: Mouse Neuro-2A neuroblastoma cells were purchased from the Russian collection of cell cultures (Institute of Cytology, Saint Petersburg, Russia). Cells were cultured in DMEM (Paneco, Russia) supplemented with 10% fetal bovine serum (PAA Laboratories, Austria) and penicillin–streptomycin 100 U/mL. Cells were subcultured twice a week. Cells were plated at a density of 3×10^4 cells per well on cover glasses coated with poly-D-lysine and 24 h latter subjected to the transfection with plasmid pmKate2-KCNA3-del as described above.
Figure S5. Confocal imaging of A-HgTx interactions with K-ΔKv1.3channels transiently expressed in Neuro-2A cells. (A, B) Distri-
(20 nM) from the complexes with K-ΔKv1.3 at the membrane of cells. Scale bar is 20 µm. Green and red colors – fluorescence of A-
HgTx and K-ΔKv1.3, respectively.
Figure S6. Concentration dependence of A-HgTx binding to K-Kv1.3 on a cell membrane that was measured as the dependence of
Rav on the concentration L of A-HgTx added to HEK293 cells transiently transfected with K-Kv1.3.
(also on this page, place not known: Neuro -2A K -ΔKv1.3. A -HgTx K -ΔKv1.3 0.0 0.5 1.0 1.5 2.0 0.0 0.5 1.0 1.5 L, nM Rav) […]

[6] = molecular target: T1, K-ΔKv1.3 (N-terminally truncated human Kv1.3 tagged with mKate2); assay: Whole-cell patch-clamp, K-ΔKv1.3 expressed in Neuro-2A cells; format: cell-based; parameters: expressed in transfected cells; conditions: N2a, +50 mV, 20–25 °C, pH 7.4, mean ± SEM
Procedure: The K-ΔKv1.3 channel and A-HgTx were characterized by a whole-cell patch-clamp technique. Taking into account that “the kinetic properties of the homomeric Kv channels are largely consistent across host cell lines” [42], we studied K-ΔKv1.3 presented at the membrane of mouse Neuro-2A neuroblastoma cells, which are routinely used in our electrophysiological experiments.
The ion currents were analyzed in the whole-cell configuration by depolarizing steps from −70 to 70 mV in 20 mV increments from a holding potential of −40 mV.
Test pulses having duration of 200 ms were applied stepwise with an interval of 20 s with a step of 20 mV from −70 to +70 mV then returning to a holding potential. […] Data were averaged (mean ± SEM) over ten (E) and twelve (F) cells.
(A,B) Representative series of currents before (A) and after addition of 2 nM A-HgTx (B). […]
K-ΔKv1.3-channel ion currents were recorded by the patch-clamp technique using an EPC-10 amplifier (HEKA Elektronik, Germany) in a standard whole-cell configuration. […]
Briefly, in 24–48 h after transfection, cover glasses with attached Neuro2a cells were placed in a chamber with an extracellular solution (mM): 140 NaCl, 2.8 KCl, 2 MgCl2, 2 CaCl2, 10 HEPES and 10 glucose (pH 7.4) and perfused continuously. Selection of cells for the measurements was guided by membrane fluorescence of K-ΔKv1.3. […]

[7] = test system: mKate2-tagged Kv1.3 channels; assay: A-HgTx wash-off and effect on channel distribution, mKate2-tagged Kv1.3 in HEK293 cells; format: binding, human
Procedure: as §1
In A-HgTx binding experiments, cells were incubated with A-HgTx (0.15–4 nM) for 30 min (37 °C, 5% CO2) in the complete medium. […]
as §3

[8] = test system: intact HEK293 cells that do not express mKate2-tagged Kv1.3; assay: Control: A-HgTx binding to intact HEK293 cells; conditions: 2 nM A-HgTx; no transfection; confocal imaging
Procedure: as §1, with “channels. […]” for “channels.”
as §3

[9] = HgTx1 40 nM vs A-HgTx 2 nM, HEK293 cells
[10] = 2 nM A-HgTx, living HEK293 cells

Structure (SMILES)	displacement of A-HgTx from the complexes with K-ΔKv1.3 [1]	displacement of A-HgTx from K-ΔKv1.3 [2, 9]	displacement of A-HgTx from K-Kv1.3 [3, 9]	displacement of A-HgTx from Kv1.3-K [4, 9]	binding of A-HgTx at the membrane of K-ΔKv1.3 expressing Neuro-2A cells [5]	inhibition at 0.002 µM ([6]; 2 nM A-HgTx, n = 10, read-out: inhibition of K-ΔKv1.3 currents by A-HgTx)	inhibition at 0.01 µM ([6]; 10 nM A-HgTx, n = 3, read-out: inhibition of K-ΔKv1.3 currents by A-HgTx)	effect of A-HgTx binding on membrane distribution of the Kv1.3 channels ([7]; nano-molar A-HgTx, HEK293 cells, confocal imaging)	dissociation of A-HgTx from the cell membrane on washing ([7]; washing HEK293 cells with fresh medium, data not shown)	binding of A-HgTx to K-ΔKv1.3 [2, 10]	binding of A-HgTx at the membrane of intact HEK293 cells (non-specific binding) [8]	binding of A-HgTx to K-Kv1.3 [3, 10]	binding of A-HgTx to Kv1.3-K [4, 10]
CC[C@H](C)[C@@H]1NC(=O)CNC(=O)[C@H](Cc2ccccc2)NC(=O)[C@H](CCC(N)=O)NC(=O)[C@H](C)NC(=O)[C@H](CCCCN)NC(=O)[C@@H]2CSSC[C@@H](C(=O)N[C@@H](Cc3ccc(O)cc3)C(=O)N3CCC[C@H]3C(=O)N[C@@H](Cc3c[nH]cn3)C(=O)O)NC(=O)[C@H](CCCCN)NC(=O)[C@@H]3CSSC[C@H](NC(=O)[C@H](CCC(N)=O)NC(=O)[C@H](CCCCN)NC(=O)[C@@H]4CCCN4C(=O)[C@H](CO)NC(=O)[C@H]([C@@H](C)O)NC(=O)[C@@H](NC(=O)[C@H](CCCCN)NC(=O)[C@@H](NC(=O)[C@H](CC(=O)O)NC(=O)[C@@H](NC(=O)[C@@H](NC(=O)[C@@H](N)[C@@H](C)O)C(C)C)[C@@H](C)CC)C(C)C)CSSC[C@H](NC(=O)[C@H](CCCCN)NC(=O)[C@H](C)NC(=O)CNC(=O)[C@H](C)NC(=O)[C@H](CCCNC(=N)N)NC1=O)C(=O)N[C@@H](CCSC)C(=O)N[C@@H](CC(N)=O)C(=O)NCC(=O)N[C@@H](CCCCN)C(=O)N3)C(=O)N[C@@H](CC(C)C)C(=O)N1CCC[C@H]1C(=O)N1CCC[C@H]1C(=O)N2 [HgTx1, hongotoxin 1, reference compound] (HELM PEPTIDE1{T.V.I.D.V.K.C.T.S.P.K.Q.C.L.P.P.C.K.A.Q.F.G.I.R.A.G.A.K.C.M.N.G.K.C.K.C.Y.P.H}$PEPTIDE1,PEPTIDE1,7:R3-29:R3|PEPTIDE1,PEPTIDE1,13:R3-34:R3|PEPTIDE1,PEPTIDE1,17:R3-36:R3$$$V2.0; N-terminus and C-terminus assumed)	displaced from the complexes with K-ΔKv1.3	displaces bound A-HgTx	displaces bound A-HgTx	displaces bound A-HgTx									
CC[C@H](C)[C@@H]1NC(=O)CNC(=O)[C@H](Cc2ccccc2)NC(=O)[C@H](CCC(N)=O)NC(=O)[C@H](C)NC(=O)[C@H](CCCCN)NC(=O)[C@@H]2CSSC[C@@H](C(=O)N[C@@H](Cc3ccc(O)cc3)C(=O)N3CCC[C@H]3C(=O)N[C@@H](Cc3c[nH]cn3)C(=O)O)NC(=O)[C@H](CCCCN)NC(=O)[C@@H]3CSSC[C@H](NC(=O)[C@H](CCC(N)=O)NC(=O)[C@H](CCCCN)NC(=O)[C@@H]4CCCN4C(=O)[C@H](CO)NC(=O)[C@H]([C@@H](C)O)NC(=O)[C@@H](NC(=O)[C@H](CCCCN)NC(=O)[C@@H](NC(=O)[C@H](CC(=O)O)NC(=O)[C@@H](NC(=O)[C@@H](NC(=O)[C@@H](NC(=O)CCCN(C)C(=O)c4ccccc4-c4c5ccc(=N)c(S(=O)(=O)O)c-5oc5c(S(=O)(=O)O)c(N)ccc45)[C@@H](C)O)C(C)C)[C@@H](C)CC)C(C)C)CSSC[C@H](NC(=O)[C@H](CCCCN)NC(=O)[C@H](C)NC(=O)CNC(=O)[C@H](C)NC(=O)[C@H](CCCNC(=N)N)NC1=O)C(=O)N[C@@H](CCSC)C(=O)N[C@@H](CC(N)=O)C(=O)NCC(=O)N[C@@H](CCCCN)C(=O)N3)C(=O)N[C@@H](CC(C)C)C(=O)N1CCC[C@H]1C(=O)N1CCC[C@H]1C(=O)N2 [A-HgTx] (HELM PEPTIDE1{[N=c1ccc2c(-c3ccccc3C(=O)[*:2])c3ccc(N)c(S(=O)(=O)O)c3oc-2c1S(=O)(=O)O].[CN(CCCC(=O)[*:2])[*:1]].T.V.I.D.V.K.C.T.S.P.K.Q.C.L.P.P.C.K.A.Q.F.G.I.R.A.G.A.K.C.M.N.G.K.C.K.C.Y.P.H}$PEPTIDE1,PEPTIDE1,9:R3-31:R3|PEPTIDE1,PEPTIDE1,15:R3-36:R3|PEPTIDE1,PEPTIDE1,19:R3-38:R3$$$V2.0; C-terminus assumed)					bound at the membrane of cells expressing K-ΔKv1.3	42 ± 6%	83 ± 3%	does not lead to noticeable changes	rapid (in a few minutes) dissociation	bind A-HgTx	negligible non-specific binding; also recorded: No binding of A-HgTx was observed	bind A-HgTx	bind A-HgTx

From publication PMC9780825, “Combining mKate2-Kv1.3 Channel and Atto488-Hongotoxin for the Studies of Peptide Pore Blockers on Living Eukaryotic Cells” (Toxins, 2022)
